# Laboratory results published in PMC9595134, “Novel pituitary actions of GnRH in teleost: The link between reproduction and feeding regulation” (Frontiers in Endocrinology, 2022).
# Where a SMILES comes first, the peptide text is derived from it. [ ]: non-standard residue; d: D form. pGlu = O=C1CC[C@@H](C(=O)O)N1
# Test system: grass carp pituitary cells
# Assay: RNA-seq of pituitary cells treated with GnRH3
# Assay type: cell-based, grass carp (Ctenopharyngodon idellus)
# Settings: GnRH3 1 μM, 24 h
# From the text: Then, total RNA was extracted from each well by TRIzol reagent (Yeasen) and DNase II was used to eliminate the interference of genomic DNA. The concentration and purity of each RNA sample were detected by a NanoDrop 2000 spectrophotometer, while the quality of RNA was identified on an Agilent 2100 Bioanalyzer using the RNA 6000 Nano Kit (Agilent Technologies, Santa Clara, CA, USA). […] In this study, a read depth of 0.6 billion 150-bp single-end reads was used and about 90% of reads were mapped to the genome. Gene expression levels were assigned individual values by being normalized to the number of transcripts per kilobase of exon model per million […]. […] The P-value indicated the credibility of each differential gene expression and was corrected by the false discovery rate (FDR) ([21]). […] In the present study, using grass carp pituitary cells as model, high-throughput RNA-seq was used to examine the pituitary actions of GnRH3 in teleost. […] The most abundant GO terms among the cellular component category were ‘intracellular part’, ‘membrane-bounded organelle’, ‘intracellular membrane-bounded organelle’, ‘organelle part’, and ‘intracellular organelle part’. Furthermore, the plentiful groups of biological processes were ‘metabolic process’, ‘organic substance metabolic process’, ‘primary metabolic process’, ‘cellular metabolic process’, and ‘biological regulation ( Figure 3A ).
compound,measurement,setting,value
CC(C)C[C@H](NC(=O)[C@H](Cc1c[nH]c2ccccc12)NC(=O)CNC(=O)[C@H](Cc1ccc(O)cc1)NC(=O)[C@H](CO)NC(=O)[C@H](Cc1c[nH]c2ccccc12)NC(=O)[C@H](Cc1c[nH]cn1)NC(=O)[C@@H]1CCC(=O)N1)C(=O)N1CCC[C@H]1C(=O)NCC(N)=O [GnRH3] ([pGlu]HWSYGWLPG-NH2),"fold change (FC), suhb mRNA","3-Beta-hydroxysteroid sulfotransferase, FDR 2.86E-22",0.44
same,"fold change (FC), atp5me mRNA","ATP synthase subunit e, FDR 5.40E-07",0.69
same,"fold change (FC), arpc4 mRNA","Actin-related protein 2/3 subunit 4-like, FDR 1.86E-42",0.66
same,"fold change (FC), creb2 mRNA","Activating transcription factor 4b, FDR 1.69E-07",1.56
same,"fold change (FC), cart2 mRNA","Amphetamine-regulated transcript II precursor, FDR 1.73E-22",19.16
same,"fold change (FC), anx11 mRNA","Annexin 11a, FDR 0",3.17
same,"fold change (FC), mx1 mRNA","Antiviral effector Mx3, FDR 0.004203",0.29
same,"fold change (FC), manf mRNA","Astrocyte-derived neurotrophic factor, FDR 6.58E-124",1.71
same,"fold change (FC), npr3 mRNA","Atrial natriuretic peptide receptor 3 isoform X1, FDR 0",11.53
same,"fold change (FC), e2.7.3.2 mRNA","Brain creatine kinase b, FDR 0",3.88
same,"fold change (FC), agrb1 mRNA","Brain-specific angiogenesis inhibitor 1-like, FDR 0",8.87
same,"fold change (FC), calm mRNA","Calmodulin, FDR 2.37E-221",0.68
same,"fold change (FC), ctsl mRNA","Cathepsin La isoform X1, FDR 0",2.55
same,"fold change (FC), cckar mRNA","Cholecystokinin receptor-like isoform, FDR 0.40",1.41
same,"fold change (FC), chd4 mRNA","Chromodomain-DNA-binding protein 4, FDR 3.30E-172",0.64
same,"fold change (FC), ctro mRNA","Citron Rho-interacting kinase, FDR 3.29E-164",5.24
same,"fold change (FC), bha15 mRNA","Class A basic helix-loop-helix protein 15, FDR 0",1.66
same,"fold change (FC), sod1 mRNA","Copper/zinc superoxide dismutase, FDR 1.09E-31",0.69
same,"fold change (FC), mdh1 mRNA","Cytosolic malate dehydrogenase, FDR 4.31E-77",0.68
same,"fold change (FC), dgkz mRNA","Diacylglycerol kinase zeta-like isoform X1, FDR 0.003213",0.41
same,"fold change (FC), drd2 mRNA","Dopamine D2 receptor, FDR 2.63E-37",0.35
same,"fold change (FC), rergl mRNA","Estrogen-regulated inhibitor-like protein, FDR 2.35E-26",6.29
same,"fold change (FC), npy2r mRNA","Europeptide Y receptor type 2-like, FDR 0.07342027",0.44
same,"fold change (FC), fabp7 mRNA","Fatty acid binding protein 7, FDR 5.12E-107",0.50
same,"fold change (FC), fabp3 mRNA","Fatty-acid binding protein 3b, FDR 1.56E-177",0.63
same,"fold change (FC), fth1 mRNA","Ferritin heavy chain, FDR 0",1.90
same,"fold change (FC), gmpr1 mRNA","GMP reductase 1, FDR 2.64E-126",0.61
same,"fold change (FC), bip mRNA","GRP78, FDR 5.39E-31",1.78
same,"fold change (FC), ggh mRNA","Gamma-glutamyl hydrolase, FDR 1.06E-186",1.51
same,"fold change (FC), grp mRNA","Gastrin-releasing peptide-like, FDR 1.46E-176",1.52
same,"fold change (FC), gst mRNA","Glutathione S-transferase, FDR 8.59E-06",0.67
same,"fold change (FC), gphb5 mRNA","Glycoprotein hormone beta-5, FDR 2.13E-64",0.69
same,"fold change (FC), gthα mRNA","Glycoprotein hormones alpha chain, FDR 0",1.28
same,total number of different expression genes (DEGs),"three replicates, TPM >5, FDR <0.05",820
same,number of downregulated genes,"three replicates, TPM >5, FDR <0.05, FC <0.7",575
same,number of upregulated genes,"three replicates, TPM >5, FDR <0.05, FC >1.5",245
same,"fold change (FC), pa2g3 mRNA","Group 3 secretory phospholipase A2-like, FDR 6.47E-212",0.29
same,"fold change (FC), hpt mRNA","Haptoglobin-like, FDR 4.16E-131",5.16
same,"fold change (FC), hmgb1 mRNA","High-mobility group box 1, FDR 7.95E-46",0.69
same,"fold change (FC), hint1 mRNA","Histidine triad nucleotide-binding protein 1, FDR 7.80E-16",0.66
same,"fold change (FC), h2a mRNA","Histone H2A, FDR 1.56E-20",0.63
same,"fold change (FC), h2b3 mRNA","Histone H2B 3, FDR 4.58E-23",0.53
same,"fold change (FC), h4 mRNA","Histone H4, FDR 0.002615",0.68
same,"fold change (FC), inhba mRNA","Inhibin-beta A, FDR 1.08E-11",1.90
same,"fold change (FC), il10ra mRNA","Interleukin-10 receptor 1, FDR 0.009871",27.19
same,"fold change (FC), erg7 mRNA","Lanosterol synthase, FDR 1.00E-62",0.43
same,"fold change (FC), lepr mRNA","Leptin receptor long form, FDR 6.73E-61",2.60
same,"fold change (FC), lhβ mRNA","Luteinizing hormone, FDR 0",1.32
same,"fold change (FC), rfx1 mRNA","MHC class II regulatory factor RFX1, FDR 0",0.28
same,"fold change (FC), mvp mRNA","Major vault protein, FDR 2.14E-255",0.64
same,"fold change (FC), mshr1 mRNA","Melanocyte-stimulating hormone receptor, FDR 0",0.43
same,"fold change (FC), m3k20 mRNA","Mitogen-activated protein kinase kinase 20, FDR 0.00526",0.31
same,"fold change (FC), smad7 mRNA","Mothers against decapentaplegic homolog 7, FDR 7.44E-31",1.78
same,"fold change (FC), mcfd2 mRNA","Multiple coagulation factor deficiency protein, FDR 3.57E-236",1.65
same,"fold change (FC), marcksl1b mRNA","Myristoylated alanine-rich C substrate 2, FDR 2.63E-101",0.67
same,"fold change (FC), nab1 mRNA","NGFI-A-binding protein 1, FDR 3.65E-131",5.88
same,"fold change (FC), nec1 mRNA","Neuroendocrine convertase 1, FDR 0",1.54
same,"fold change (FC), nfasc mRNA","Neurofascin, FDR 5.61E-52",10.71
same,"fold change (FC), nmb mRNA","Neuromedin-B-like, FDR 4.39E-07",3.29
same,"fold change (FC), nltp mRNA","Non-specific lipid-transfer protein, FDR 2.86E-12",0.41
same,"fold change (FC), nucb1 mRNA","Nucleobindin-1 precursor, FDR 1.72E-149",1.56
same,"fold change (FC), nlrp3 mRNA","PYD domains-containing protein 3-like, FDR 0.000497",0.26
same,"fold change (FC), fkbp11 mRNA","Peptidyl-prolyl cis-trans isomerase, FDR 0",1.94
same,"fold change (FC), gpr61 mRNA","Probable G-protein coupled receptor-like, FDR 2.17E-78",7.06
same,"fold change (FC), pdyn mRNA","Proenkephalin-B-like isoform X1, FDR 7.38E-17",5.14
same,"fold change (FC), prl mRNA","Prolactin, FDR 0",1.22
same,"fold change (FC), s100b mRNA","Protein S100-B, FDR 3.01E-240",0.31
same,"fold change (FC), ppp1r17 mRNA","Protein phosphatase 1 regulatory 17-like, FDR 2.87E-10",0.68
same,"fold change (FC), r4rl2 mRNA","Reticulon 4 receptor-like 2b precursor, FDR 6.85E-299",93.68
same,"fold change (FC), estd mRNA","S-formylglutathione hydrolase, FDR 4.80E-36",0.37
same,"fold change (FC), scg2 mRNA","Secretogranin II precursor, FDR 0",1.51
same,"fold change (FC), sqstm1 mRNA","Sequestosome-1 isoform X1, FDR 0",1.69
same,"fold change (FC), cdc42bp mRNA","Serine/threonine-protein kinase MRCK beta, FDR 0.004184",0.37
same,"fold change (FC), plk2 mRNA","Serine/threonine-protein kinase PLK2, FDR 0",5.78
same,"fold change (FC), sec11 mRNA","Signal peptidase complex catalytic subunit, FDR 1.55E-131",1.55
same,"fold change (FC), spcs3 mRNA","Signal peptidase complex subunit 3, FDR 2.74E-239",1.77
same,"fold change (FC), sstr3 mRNA","Somatostatin receptor type 3, FDR 3.09E-126",0.42
same,"fold change (FC), stat4 mRNA","Stat 4-like, FDR 9.86E-21",0.86
same,"fold change (FC), stat5a mRNA","Stat5.2 protein, FDR 0.04174356",0.89
same,"fold change (FC), sdf2l mRNA","Stromal cell-derived factor 2-like 1, FDR 1.30E-57",1.55
same,"fold change (FC), tt39b mRNA","Tetratricopeptide repeat protein 39B-like, FDR 6.74E-06",6.76
same,"fold change (FC), rdl mRNA","Thiosulfate sulfurtransferase, FDR 3.51E-111",1.57
same,"fold change (FC), ppp1r10 mRNA","Threonine-protein phosphatase 1 regulatory, FDR 2.43E-39",0.42
same,"fold change (FC), junb mRNA","Transcription factor jun-B, FDR 2.36E-96",1.89
same,"fold change (FC), rhoa mRNA","Transforming protein rhoa, FDR 0.042946",0.32
same,"fold change (FC), tpisb mRNA","Triosephosphate isomerase B, FDR 8.61E-53",0.68
same,"fold change (FC), tph1 mRNA","Tryptophan 5-hydroxylase 1, FDR 0",17.70
same,"fold change (FC), tubb mRNA","Tubulin beta-4B chain, FDR 3.79E-49",0.40
same,"fold change (FC), tsg6 mRNA","Tumor necrosis factor-inducible gene 6 protein, FDR 1.99E-06",5.12
same,"fold change (FC), crh mRNA","Urotensin 1, FDR 6.72E-06",1.74
same,"fold change (FC), snf8 mRNA","Vacuolar-sorting protein SNF8-like, FDR 1.18E-06",0.44
same,"fold change (FC), vdac3 mRNA","Voltage-dependent anion-selective protein 3, FDR 5.87E-44",0.69
same,"fold change (FC), zbtb8 mRNA","Zinc finger domain-containing protein 8A, FDR 1.08E-73",1.69
same,"fold change (FC), zfp36l mRNA","Zinc finger protein 36, C3H type-like 1b, FDR 1.92E-125",0.66
same,"fold change (FC), pim1 mRNA","threonine-protein kinase pim-1, FDR 0",3.25
